The subject of data set [1] is MCF7 (breast adenocarcinoma). Briefly: MTS assay, inhibition of cell proliferation, MCF7. The following applies: Homo sapiens, read-out: Inhibition of cell proliferation (IC50). Format: cell-based. From the text:
(§1) The medium was changed every 2-3 days.

The test system of another data set is HepG2 (hepatocarcinoma). Briefly: MTS assay, inhibition of cell proliferation, HepG2. Format: cell-based. Conditions: Homo sapiens, read-out: Inhibition of cell proliferation (IC50). As to the method: Experiments were performed in duplicate (n=3).
Data set [2] has as its system HCT116 (colon adenocarcinoma). Briefly: MTS assay, inhibition of cell proliferation, HCT116. The following applies: Homo sapiens.
Method: (§4) The human cell lines HCT116 (colon adenocarcinoma), PC3 (prostate adenocarcinoma) and HCT15 (colon adenocarcinoma) were obtained from ECACC (Wiltshire, UK).
(§5) The cell lines HCT116, HCT15, MCF7, MDA435, MDA231, PC3, OV3, HL60R and HL60 were grown in RPMI medium, in particular supplemented with 10% fetal calf serum, in the presence of penicillin, streptomycin and fungizone in 75 cm^2 flask under 5% CO2.
(§6) Cells were plated in 96-well tissue culture plates in 200 μl medium and cultured during 24 h before to be treated with compounds dissolved in DMSO (compound concentrations at a range of 0.5 nM to 10 μM) using a Biomek 2000 or 3000 (Beckman). Controls received the same volume of DMSO (1% final volume). After a 72 h exposure, MTS reagent (Promega) was added and incubated for 3 h at 37° C. The absorbance was then monitored at 490 nm and results were expressed as the value [1-(OD490 treated/OD490 control)×100] corresponding to the percentage of inhibition of cell proliferation.
Data set [3] relates to HCT15 (colon adenocarcinoma). Briefly: MTS assay, inhibition of cell proliferation, HCT15. The data set is classed as cell-based. Conditions: Homo sapiens, read-out: Inhibition of cell proliferation (IC50).
Excerpt: as §1

Data set [4] relates to HL60 (promyeocytic leukaemia). In words: MTS assay, inhibition of cell proliferation, HL60. Conditions: Homo sapiens.
Method: (§7) The human cell lines HL60 (promyeocytic leukaemia), MDA435 (breast ductal carcinoma; ATCC reference HBT129) and MDA231 (breast adenocarcinoma; ATCC reference HBT26) were obtained from ATCC. […] SK-OV3 cells (or OV3, ATCC reference HTB77) were kindly provided by NCI (Frederick, Md.).
(§8) The cell lines HCT116, HCT15, MCF7, MDA435, MDA231, PC3, OV3, HL60R and HL60 were grown in RPMI medium, in particular supplemented with 10% fetal calf serum, in the presence of penicillin, streptomycin and fungizone in 75 cm^2 flask under 5% CO2. […] The medium was changed every 2-3 days.
as §6
Data set [5] concerns KB (epidermoid carcinoma). Briefly: MTS assay, inhibition of cell proliferation, KB. The following applies: Homo sapiens.
Method: The human cell lines KB (epidermoid carcinoma) and HepG2 (hepatocarcinoma) were obtained from ECACC (Salisbury, UK) and grown in D-MEM medium supplemented with 10% fetal calf serum, in the presence of penicilline, streptomycine and fungizone in 75 cm^2 flask under 5% CO2.
as §6
The subject of data set [6] is Resistant MCF7 (MCF7R) cells. In words: MTS assay, inhibition of cell proliferation, MCF7R. Format: cell-based. Conditions: Homo sapiens, 72 h.
Excerpt: as §1

Data set [7] has as its system H9c2 cardiomyocytes. How it is done:
(§2) H9c2 cells were plated for 24 h in 100 mm Petri dishes at 0,7×10^4 cells/cm^2. Next, the cells were washed and cultured for 12 h in glucose-free medium (Gibco, DMEM w-L-glutamine, w/o D-glucose, sodium pyruvate) supplemented with only 1% fetal calf serum. […] Cells were washed, and subsequently FACS analyses were performed.
(§3) Apoptosis was analysed by fluorescence-activated cell sorting analysis (FACS-Calibur, Becton-Dickinson Biosciences). 0,5×10^6 cells were harvested, washed with Annexin Binding Buffer (0,01 M HEPES, 0,14 M NaCl, 2,5 mM CaCl2) and labeled with annexin V (dilution 1:50) and propidium iodide (6,7 μg/ml). All assays were performed at least in triplicate, and the results were analyzed by BD Cell Quest Pro software (Becton-Dickinson Biosciences, Le Pont De Claix, France).

The subject of data set [8] is H9c2 cardiomyocytes. How it is done: as §1, §2, §3
The source holds these as a separate data set.

The test system of data set [9] is HL60R (resistant HL60 cells). In words: MTS assay, cytotoxicity, HL60R. Conditions: Homo sapiens, read-out: Cytotoxicity (IC50).
Method: as §5, §6
Data set [10] concerns MDA231 (breast adenocarcinoma). Briefly: MTS assay, cytotoxicity, MDA231. The following applies: Homo sapiens, MDA-MB-231, read-out: Cytotoxicity (IC50).
Method: as §7, §8, §6
Data set [11] concerns PC3 (prostate adenocarcinoma). In words: MTS assay, cytotoxicity, PC3. Conditions: Homo sapiens, read-out: Cytotoxicity (IC50).
Method: as §4, §5, §6
The test system of data set [12] is MDA435 (breast ductal carcinoma). Briefly: MTS assay, cytotoxicity, MDA435. The following applies: Homo sapiens, MDA435, read-out: Cytotoxicity (IC50).
Method: as §7, §8, §6
For the next data set, the system named is mice. Briefly: In vivo cardioprotection against doxorubicin in mice. How it is done: Administration of FL3 (0.1 mg/kg i.p., 2×/day for 4 days) protected mice from the cardiotoxicity induced by doxorubicine (20 mg/kg i.p.): they observed a 70% survival rate for the mice that received FL3. The survival rate for the mouse who received the vehicle was only 30% (see Table 3).

The test system of a further data set is SK-OV3 cells (OV3). Briefly: MTS assay, cytotoxicity, OV3. The following applies: Homo sapiens, SK-OV-3, read-out: Cytotoxicity (IC50).
The conditions of data set [13]: cumulative dose of doxorubicin 700 mg/m^2; cited from earlier work.
Where [14] appears, read: HCT-116, 72 h, read-out: Inhibition of cell proliferation (IC50).
Where [15] appears, read: HCT-15, HCT15, MTS, 72 h, Table 1.
The mark [16] stands for this setting: HL-60, 72 h, read-out: Inhibition of cell proliferation (IC50).
Setting [17] is: 72 h, read-out: Inhibition of cell proliferation (IC50).
Where [18] appears, read: MTS, Table 1, read-out: Inhibition of cell proliferation (IC50).
[19] abbreviates: HCT-116, read-out: Cytotoxicity (IC50).
Setting [20] is: HL-60, read-out: Cytotoxicity (IC50).

pIC50: −log10 of the molar value. Like-named read-outs stand apart in the source and are kept apart here.

Method for SK-OV3 cells (OV3): as §7, §8, §6

Take `COc1ccc([C@@H]2C[C@@H](O)[C@@]3(O)c4c(OC)cc(OC)cc4O[C@@]23c2ccccc2)cc1` [FL4]: the pIC50 is below 5.00 in data set [1] (MCF7, MTS, 72 h, Table 1); below 5.00 in the data set on HepG2 (hepatocarcinoma) (HepG2, MTS, 72 h, Table 1); below 5.00 in data set [2] (setting [14]); below 5.00 in data set [3] (setting [15]); below 5.00 in [4] (setting [16]); below 5.00 in data set [5] (setting [17]). In addition, in data set [6] (setting [18]), the pIC50 was below 5.00.

As to `CCc1cc(-c2oncc2-c2ccc(OC)cc2)c(O)cc1OC` [KRIBB3, reference compound], the “Cytotoxicity of KRIBB3 on cardiomyocytes” value in the data set on H9c2 cardiomyocytes [7] (KRIBB3 1 μM, 1 h) was “induced a cytotoxicity”.

For `COc1cc(OC)c2c(c1)O[C@@]1(c3ccc(Br)cc3)[C@H](c3ccccc3)C[C@@H](O)[C@@]21O` (racemic) [FL3, bromo-demethoxy-rocaglaol], in the data set on H9c2 cardiomyocytes [8] (1 nM FL3, 1 μM doxorubicin, H9c2), the “Diminution of the apoptosis induced by doxorubicin” value amounted to 70%. Further, the “Alleviation of the apoptosis induced by doxorubicin” value with H9c2 cardiomyocytes [8] (50 nM FL3, 20 times superior concentration of doxorubicin, H9c2) was 61%. For the same compound, in the data set with H9c2 cardiomyocytes [8] (H9c2, FIG. 8B), the “Concentration of maximum inhibition of doxorubicin-induced apoptosis” value was found to be 1 nM. Also, the pIC50 in [1] (MCF7, 72 h) was 9.00; in [9], 8.35; in data set [10], 8.42; in [11] it was 7.77; in the data set with HepG2 (hepatocarcinoma) (HepG2, 72 h), 8.40; in data set [2] (setting [14]), above 9.00. Moreover, the pIC50 in data set [2] (setting [19]) is 8.12; in data set [3] (HCT-15, 72 h), 9.00; in data set [4] (setting [16]), above 9.00; in [4] (setting [20]) it was 8.26; in data set [5] (setting [17]), above 9.00; in data set [5] (read-out: Cytotoxicity (IC50)), 7.82. For the same compound, the pIC50 in [12] was 8.06; in data set [6] (read-out: Inhibition of cell proliferation (IC50)) it was above 9.00; with SK-OV3 cells (OV3), 8.07. The Survival rate in the data set with mice (Doxorubicin (1 x, 20 mg/kg i.p.) + FL3 (8 x, 0.1 mg/kg i.p.)) worked out at 70%; in the data set with mice (FL3 alone (8 x, 0.1 mg/kg i.p.)), 100%. The “Effect on KRIBB3-induced cytotoxicity” value in the data set with H9c2 cardiomyocytes [7] (co-treatment FL3 100 nM with KRIBB3 1 μM) is reported as “significantly alleviated”. Further, the “Effect on KRIBB3 worsening of doxorubicin cytotoxicity” value in the data set on H9c2 cardiomyocytes [7] (doxorubicin, KRIBB3 and FL3 all together) is “reversed”.

In the case of `COc1cccc2c1C(=O)c1c(O)c3c(c(O)c1C2=O)C[C@@](O)(C(=O)CO)C[C@@H]3O[C@H]1C[C@H](N)[C@H](O)[C@H](C)O1` [Doxorubicin, doxorubicin, reference compound], the “Apoptosis induced (total apoptotic cells)” value in the data set on H9c2 cardiomyocytes [8] (1 μM doxorubicin for 14 h, H9c2) amounted to 32%. Besides, the pIC50 in data set [1] (MCF7, MTS, 72 h, Table 1) was 7.92; in data set [10] it was 10.33; in data set [11] it was 6.73; with HepG2 (hepatocarcinoma) (HepG2, MTS, 72 h, Table 1) it was 6.62; in data set [2] (setting [14]) it was 8.22; in data set [3] (setting [15]), 7.09. The pIC50 in data set [4] (setting [16]) was 7.89; in data set [4] (setting [20]), 7.52; in data set [5] (setting [17]), 9.00; in data set [12] it was 8.46; in data set [6] (setting [18]), 7.24; in the data set with SK-OV3 cells (OV3), 7.39. Also, the “Risk of developing congestive heart failure” value in data set [13] is reported as 48%. Besides, in the data set on mice (Doxorubicin alone (1 x, 20 mg/kg i.p.)), the Survival rate is reported as 30%.

For `COc1ccc([C@@]23Oc4cc(OC)cc(OC)c4[C@]2(O)[C@H](O)C[C@H]3c2ccccc2)cc1` (racemic) [FL1, rocaglaol], the pIC50 was 8.40 in [1] (MCF7, MTS, 72 h, Table 1); 7.15 in the data set with HepG2 (hepatocarcinoma) (HepG2, MTS, 72 h, Table 1); 8.22 in data set [2] (setting [14]); 8.22 in data set [3] (setting [15]); 8.52 in data set [4] (setting [16]); 8.70 in [5] (setting [17]). For the same compound, the pIC50 in data set [6] (setting [18]) was 8.40.

As to `COC(=O)[C@H]1[C@@H](O)[C@@]2(O)c3ccc(OCCCO)cc3O[C@@]2(c2ccc(OC)cc2)[C@@H]1c1ccccc1` (racemic) [FL11], the “Activity for cytotoxicity and cardioprotection (FIG. 13)” value in the data set with H9c2 cardiomyocytes [8] (10 or 100 nM, apoptosis induced by doxorubicin in H9c2 cells) is “no or weak such activity”. The pIC50 was 5.89 in data set [9]; 5.97 in data set [10]; 5.60 in data set [11]; 5.85 in [2] (setting [19]); 5.95 in data set [4] (setting [20]); 5.77 in data set [5] (read-out: Cytotoxicity (IC50)). In addition, the pIC50 in data set [12] was 5.95; with SK-OV3 cells (OV3) it was 5.84.
